Columns and labels:
[1] = target: T1, type II 5-alpha-reductase (Homo sapiens, UniProt P31213); settings: Moore et al. 1995; cited from earlier work
T1 sequence (P31213 1-254): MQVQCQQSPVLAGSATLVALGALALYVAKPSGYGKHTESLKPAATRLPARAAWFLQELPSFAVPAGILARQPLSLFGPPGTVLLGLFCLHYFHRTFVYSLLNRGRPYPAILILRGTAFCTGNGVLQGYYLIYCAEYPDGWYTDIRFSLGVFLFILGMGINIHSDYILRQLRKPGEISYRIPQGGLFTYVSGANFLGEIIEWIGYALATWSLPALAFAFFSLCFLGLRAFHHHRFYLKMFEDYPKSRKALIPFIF

MMP-9 = test: Zymography for metalloproteinases in medium of PPS-treated cells (MMP-9); format: cell-based, human; settings: PPS 100 μg/μl daily for 5 days; densitometry
Experimental: (§1) Cells in medium containing 20% FBS were pipetted into 6-well plates and were left undisturbed for 24 hours. On day 0, fresh medium containing 20% serum, with and without PPS ([…]), was added PPS was added daily for 5 days. At day 4, the serum in the medium was reduced to 0.1% FBS so as to avoid interference with the assays. At the time of collection, the cellular supernatants were centrifuged to remove cellular debris. Cell layers from the same wells were used to determine cell number.
(§2) Briefly, medium was diluted with 0.1% FBS and 5× Laemmli buffer so that all samples corresponded to an identical cell number. Gelatinases (MMP-9 and MMP-2) in the medium were assayed using 10% zymogram gels (Novex, San Diego, Calif.). Following electrophoresis, the gels were washed for 1 hour in 2.5% SDS and incubated overnight in collagenase as described previously (Boyle et al., Urology 48: 398-405, 1996). The gels were stained with Coomassie Blue and air-dried. To check for non-specific bands, gels were incubated in 50 mM Tris buffer, with the addition of 25 mM EDTA. Quantitative densitometry was performed using NIH image 1.6. […] However MMP-9 increased 235.7+/−50.31 as compared to control cells (see FIG. 3) (p<001).

[2] = patients treated for IC; Sand et al. 1997; cited from earlier work
type IV collagen = test: Collagen analysis, type IV collagen immunoassay; format: cell-based, human; settings: PPS-treated vs untreated cells
Experimental: (§3) Another set of cells was plated as described in Example 2 and either treated with PPS or left untreated. The supernatant was centrifuged to remove cellular debris and transferred to a tube containing protease inhibitors (PMSF, NEM, EDTA) and frozen prior to assay.
Type IV collagen: The Assay was performed in a similar way, except the medium and standards were coated on the plate for 8 hours prior to blocking. The concentration of the antibody and the biotinylated goat anti-rabbit IgG was 1:2000. The SAAP was used at 1:1500.
(§4) Type I and type IV (Biodesign) collagen standards were diluted to a final concentration of 0.25-4 ng/well in 0.02 N acetic acid. The curves were linear (r=0.98).

human prostate cells = test: Dose response / growth curves of prostatic smooth muscle cells in 20% FBS, cell counts by Coulter counter; format: cell-based
Experimental: Fragments from the nodular areas of prostatectomy specimens were obtained, cut into small pieces, and incubated in a collagenase solution (3 mg/ml) (Sigma Chemical Co., St. Louis, Mo.) overnight at 37° C. The following day, the digested fragments were resuspended in complete Waymouth's medium (Gibco) containing 20% fetal bovine serum (FBS), L-glutamine, penicillin (100 U/ml), streptomycin (100 μg/ml), and sodium bicarbonate. The digested fragments were then plated into 24-well plates (Nunc Nalge International, Naperville, Ill.) coated with human fibronectin (Collaborative Research). The fragments were left undisturbed in 95% […] and 5% CO2 until the first outgrowth was apparent (by day 7), at which time the cells appeared elongated and stellate and formed parallel arrays. The medium was changed twice a week until the cells reached confluence, at which time the cells were transferred into flasks. All experiments were performed on cells between passage 2 and 10, at which time the cells appeared to have a stable phenotype (i.e., monolayer growth with no morphological change and no hillock formation at confluence). Characterization was performed by staining for a smooth muscle cell actin (Sigma Chemical Co.) and F actin (Molecular Probes) in accordance with manufacturers' directions. All of the cells contained end to end actin filaments when stained with phalloidin. Such staining is characteristic of mesenchymal cells. Since the majority of the cells contained smooth muscle actin (see FIG. 1), the cells were considered to be smooth muscle cells
Dose response curves for the cells were generated by plating cells at 5,000 cells/well in 24-well plates (Nunc) in medium containing 20% FBS. After 36 hours, the medium was replaced with fresh 20% FBS containing medium and increasing concentrations of PPS (Elmiron®, Ivax Corp., Miami Fla.) were added. Cells were counted on days 1, 3 and 4 with a Coulter 7.1 cell counter (Coulter, Hialeah, Fla.). The addition of FBS stimulated cell proliferation. […] Cell number decreased 24 hours following treatment with PPS (10 or 100 μg/ml) (see FIG. 2). […]

MMP-2 = test: Zymography for metalloproteinases in medium of PPS-treated cells (MMP-2); format: cell-based, human; settings: PPS 100 μg/μl daily for 5 days; densitometry
Experimental: as §1, §2

type I collagen = test: Collagen analysis, type I collagen immunoassay; format: cell-based, human; settings: PPS-treated vs untreated cells
Experimental: as §3
Type I collagen: 100 μl of medium or human collagen type I standard were incubated for 24 hours in a 96 well plate (Nunc). After 3 washes with 0.05% Tween/PBS, the wells were blocked with 1% BSA/PBS for an additional 24 hours. Following 4 washes with 0.05% Tween/PBS, 50 μl of human collagen type I antibody (1:1000) (Biodesiga, Kennebunk, Me.) was applied for 90 minutes. The plate was washed again and biotin-labeled goat anti-rabbit IgG (1:1000, Sigma) was applied for 1 hour. The wells were washed 4 more times and incubated with streptavidin […] (SAAP) at a 1:2500 concentration. P-nitrophenyl phosphate (pNPP, Sigma) was used for color development according to the manufacturer's directions. The plate was read in a Titertek Mulitskan plate reader at 405 nm.
as §4

TIMP-1 = test: Reverse zymography for tissue inhibitors of metalloproteinases (TIMP-1); format: cell-based, human; settings: PPS-treated cells; densitometry
Experimental: (§5) Tissue inhibitors of metalloproteinases (TIMPS) in the supernatant and the cell layer were assessed by reverse zymography. Briefly, gels were prepared containing gelatinase A. Medium was diluted to normalize for cell number as described in Example 2. Gels were washed for 1 hour in 2.5% SDS following electrophoresis and incubated overnight at 37° C. Coomasie Blue staining and air drying was performed as described in Example 2. Densitometry was performed using NIH image 1.6 to quantitate the TIMPS activity.

TIMP-2 = test: Reverse zymography for tissue inhibitors of metalloproteinases (TIMP-2); format: cell-based, human; settings: PPS-treated cells; barely detectable in the control medium
Experimental: as §5

Row | Compound | Decrease in DHT [1] [%] | Prostate specific antigen [1] | Prostate volume reductions [1] [%] | MMP-9 increase as compared to control cells (MMP-9) | Serious adverse effects (mainly gastrointestinal or alopecia) [2] | Type IV collagen level (type IV collagen; cell layer) | Type IV collagen level (type IV collagen; medium) | Cell number (human prostate cells; 24 hours following treatment with PPS (10 or 100 μg/ml), 20% FBS) | Cell death, as assessed by trypan blue staining (human prostate cells; PPS 10 or 100 μg/ml) | Decrease in cell number (human prostate cells; day 4 of treatment with 100 μg/ml PPS) [fold] | MMP-2 levels, PPS-treated cells vs control cells (MMP-2) | Type I collagen level relative to untreated control (type I collagen; cell layer) | Type I collagen level relative to untreated control (type I collagen; medium) | TIMP-1 levels increase as compared to control cells (TIMP-1) | TIMP-2 expression in the medium (TIMP-2)
1 | CC(C)(C)NC(=O)[C@H]1CC[C@H]2[C@@H]3CC[C@H]4NC(=O)C=C[C@]4(C)[C@H]3CC[C@]12C [finasteride] | 72 | reduction | 30 |  |  |  |  |  |  |  |  |  |  |  | 
2 | pentosan polysulfate [PPS] |  |  |  | 235.7+/−50.31% of untreated control c | 3.2 % of chronic users | 52.99%+/−7.556 % of controls | 43.03%+/−4.029 % of controls | decreased | not associated with cell death | 3 | no significant differences | 66.91%+/−25.42 % of controls | 29.97%+/−3.692 % of controls | 203.5+/−50.31% of untreated control c | expressed at high levels

Reference: patent publication US6828309B2, “Use of pentosan polysulfate to treat certain conditions of the prostate” (The United States of America as represented by the …, priority 2000, dated 2004)
